Laboratory results taken from patent publication US9611263B2, “Compounds that modulate intracellular calcium” (CALCIMEDICA, INC., priority 2013, dated 2017).

What was measured:
[1] = target: T1, Orai1/STIM1 (Homo sapiens, UniProt Q96D31); assay: Fluorescence-based assay of store-operated calcium entry in Orai1/STIM1 stable cells; type: cell-based; design: key to Orai1/STIM1 (IC50, μmol): A < 0.6 μmol; 0.6 μmol ≦ B ≦ 1.2 μmol; C > 1.2 μmol; — = no fit; details: HEK-293 cells stably expressing human STIM1 and Orai1, 50% inhibition of Peak-Basal fluorescence signal; for IC50: read-out: Orai1/STIM1 (IC50, μmol)
T1 construct: expressed in transfected cells
Protocol: A. Fluorescence-Based Assay of Store-Operated Calcium Entry in Orai1/STIM1 Stable Cells.
Cells stably expressing recombinant human STIM1 and Orai1 are generated by transfecting a human Orai1 expression plasmid (pcDNA3.1-Orai1-cmyc) into HEK-293 cells stably overexpressing human STIM1 (Roos et al. 2005 JCB 169(3): 435-445). Colonies of cells stably expressing both STIM1 and Orai1 proteins are selected and then subcloned by limiting dilution. Cells were cultured at 37° C./6% CO2 in complete medium with 10% FBS and appropriate selection markers.
The day prior to performing the assay Orai1/STIM1 stable cells are plated in 50 μL of complete medium at 90-95% confluence in a 384 well plate. Cells are grown at 37° C./6% CO2 overnight. On the day of the assay, 1.5 μM fluo-4-AM (Invitrogen) in complete medium is added to the cells, which are then incubated for 1 hour at RT. Cells are washed once in Ca^2+-free HBSS (Hank's buffered saline solution) and 35 μl of Ca^2+-free HBSS is added to each well. Test compounds are added to wells in a 10 μL Ca^2+-free HBSS solution, prepared at 4.5× the desired final concentration, and incubated for 30 minutes at RT. The initial baseline fluorescence signal is then measured with a FLIPR^384 (Molecular Devices) plate reader. Calcium entry is initiated by adding 5 μl of 10× CaCl2 (10 mM) in HBSS, and changes in cellular fluorescence are measured with the FLIPR^384 plate reader. In each well, the magnitude of the fluorescence signal as a result of calcium entry into the cell is determined by calculating the difference between the peak fluorescence signal measured after calcium addition and the initial baseline fluorescence signal (designated Peak-Basal). IC50 values are typically calculated as the concentration that inhibited 50% of the Peak-Basal signal.

[2] = system: RBL-2H3 cells; assay: Fluorescence-based assay of store-operated calcium entry in RBL-2H3 cells; type: cell-based, rat; details: Rattus norvegicus, RBL-2H3; thapsigargin; 50% inhibition of Upslope; read-out: RBL-2H3 (IC50, μmol)
Protocol: B. Fluorescence-Based Assay of Store-Operated Calcium Entry in RBL-2H3 Cells.
RBL-2H3 cells are obtained from ATCC and maintained in complete medium with 10% FBS at 37° C./6% CO2.
The day prior to performing the assay, RBL-2H3 cells are plated in 50 μL of complete medium in a 384 well plate. Cells are grown at 37° C./6% CO2 overnight and grow to 50-60% confluence by the next day. On the assay day, 1.5 μM Fluo-4-AM dye (Invitrogen) in complete medium is added and incubated for 1 hour at RT. Cells are washed twice in Ca^2+-free HBSS buffer and 35 μL Ca^2+-free HBSS buffer is added to each well. 10 μL of a test compound prepared in a Ca^2+-free HBSS solution at 4.5× of the desired concentration is added to a well and incubated for 5 minutes at RT. 10 μL of thapsigargin prepared in a Ca^2+-free HBSS solution at 5.5× of the desired concentration (5.5 uM) is added to each well and incubated for an additional 25 minutes. The initial baseline fluorescence signal is measured with a FLIPR^384 (Molecular Devices) plate reader. 5 μL of 12× calcium in HBSS (12 mM) is added and changes in cellular fluorescence are measured with the FLIPR^384 plate reader. In each well, the change in the fluorescent signal as a function of time due to calcium entry into the cell is determined by calculating the difference between the fluorescent signal measured 7 seconds after calcium addition and the initial baseline fluorescence signal at time zero (t=0). This parameter is designated Upslope. The IC50 value is calculated as the concentration at which 50% of the Upslope is inhibited.

T1 sequence (Q96D31 whole entry): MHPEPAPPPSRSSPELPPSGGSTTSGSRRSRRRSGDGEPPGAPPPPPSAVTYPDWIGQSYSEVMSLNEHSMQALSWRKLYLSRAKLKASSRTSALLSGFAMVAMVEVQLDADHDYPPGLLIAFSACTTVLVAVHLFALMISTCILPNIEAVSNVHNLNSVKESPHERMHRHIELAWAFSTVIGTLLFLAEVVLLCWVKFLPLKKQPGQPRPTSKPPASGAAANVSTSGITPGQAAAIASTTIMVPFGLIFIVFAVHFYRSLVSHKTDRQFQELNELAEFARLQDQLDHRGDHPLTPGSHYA

Row | IC50 [1] | IC50 [2] | Orai1/STIM1 (IC50, μmol) [1] | Structure (SMILES)
1 | 0.6 to 1.2 µM | < 0.6 µM |  | Cc1ccc(F)c(C(=O)Nc2cnc(-c3cn(-c4nccs4)nc3C)cn2)c1F [Example 30, 2,6-difluoro-3-methyl-N-(5-(3-methyl-1-(thiazol-2-yl)-1H-pyrazol-4-yl)pyrazin-2-yl)benzamide]
2 | < 0.6 µM | < 0.6 µM |  | CCc1nn(-c2nccs2)cc1-c1ccc(NC(=O)c2c(F)cccc2F)cc1F [Example 31, N-(4-(3-ethyl-1-(thiazol-2-yl)-1H-pyrazol-4-yl)-3-fluorophenyl)-2,6-difluorobenzamide]
3 | > 1.2 µM | < 0.6 µM |  | CCc1nn(-c2nccs2)cc1-c1ccc(NC(=O)c2c(F)ccc(F)c2F)cc1F [Example 32, N-(4-(3-ethyl-1-(thiazol-2-yl)-1H-pyrazol-4-yl)-3-fluorophenyl)-2,3,6-trifluorobenzamide]
4 | > 1.2 µM | < 0.6 µM |  | CCc1nn(-c2nccs2)cc1-c1ccc(NC(=O)c2c(F)cc(F)cc2F)cc1F [Example 33, N-(4-(3-ethyl-1-(thiazol-2-yl)-1H-pyrazol-4-yl)-3-fluorophenyl)-2,4,6-trifluorobenzamide]
5 | > 1.2 µM | < 0.6 µM |  | CCc1nn(-c2nccs2)cc1-c1ccc(NC(=O)c2cc(F)nc(F)c2)cc1F [Example 34, N-(4-(3-ethyl-1-(thiazol-2-yl)-1H-pyrazol-4-yl)-3-fluorophenyl)-2,6-difluoroisonicotinamide]
6 | < 0.6 µM | < 0.6 µM |  | CCc1nn(-c2nccs2)cc1-c1ccc(NC(=O)c2c(F)cccc2F)nc1 [Example 35, N-(5-(3-ethyl-1-(thiazol-2-yl)-1H-pyrazol-4-yl)pyridin-2-yl)-2,6-difluorobenzamide]
7 | < 0.6 µM | < 0.6 µM |  | CCc1nn(-c2nccs2)cc1-c1ccc(NC(=O)c2c(F)ccc(F)c2F)nc1 [Example 36, N-(5-(3-ethyl-1-(thiazol-2-yl)-1H-pyrazol-4-yl)pyridin-2-yl)-2,3,6-trifluorobenzamide]
8 | < 0.6 µM | < 0.6 µM |  | CCc1nn(-c2nccs2)cc1-c1ccc(NC(=O)c2c(F)cc(F)cc2F)nc1 [Example 37, N-(5-(3-ethyl-1-(thiazol-2-yl)-1H-pyrazol-4-yl)pyridin-2-yl)-2,4,6-trifluorobenzamide]
9 | < 0.6 µM | < 0.6 µM |  | CCc1nn(-c2nccs2)cc1-c1cnc(NC(=O)c2c(F)cccc2F)cn1 [Example 38, N-(5-(3-ethyl-1-(thiazol-2-yl)-1H-pyrazol-4-yl)pyrazin-2-yl)-2,6-difluorobenzamide]
10 | > 1.2 µM | < 0.6 µM |  | O=C(Nc1ccc(-c2cn(-c3nccs3)nc2C2CC2)c(F)c1)c1c(F)cccc1F [Example 41, N-(4-(3-cyclopropyl-1-(thiazol-2-yl)-1H-pyrazol-4-yl)-3-fluorophenyl)-2,6-difluorobenzamide]
11 | 0.6 to 1.2 µM | < 0.6 µM |  | O=C(Nc1ccc(-c2cn(-c3nccs3)nc2C2CC2)c(F)c1)c1c(F)ccc(F)c1F [Example 42, N-(4-(3-cyclopropyl-1-(thiazol-2-yl)-1H-pyrazol-4-yl)-3-fluorophenyl)-2,3,6-trifluorobenzamide]
12 | > 1.2 µM | < 0.6 µM |  | O=C(Nc1ccc(-c2cn(-c3nccs3)nc2C2CC2)c(F)c1)c1c(F)cc(F)cc1F [Example 43, N-(4-(3-cyclopropyl-1-(thiazol-2-yl)-1H-pyrazol-4-yl)-3-fluorophenyl)-2,4,6-trifluorobenzamide]
13 | < 0.6 µM | < 0.6 µM |  | O=C(Nc1ccc(-c2cn(-c3nccs3)nc2C2CC2)cn1)c1c(F)cccc1F [Example 44, N-(5-(3-cyclopropyl-1-(thiazol-2-yl)-1H-pyrazol-4-yl)pyridin-2-yl)-2,6-difluorobenzamide]
14 | 0.6 to 1.2 µM | < 0.6 µM |  | O=C(Nc1ccc(-c2cn(-c3nccs3)nc2C2CC2)cn1)c1c(F)ccc(F)c1F [Example 45, N-(5-(3-cyclopropyl-1-(thiazol-2-yl)-1H-pyrazol-4-yl)pyridin-2-yl)-2,3,6-trifluorobenzamide]
15 | 0.6 to 1.2 µM | < 0.6 µM |  | O=C(Nc1ccc(-c2cn(-c3nccs3)nc2C2CC2)cn1)c1c(F)cc(F)cc1F [Example 46, N-(5-(3-cyclopropyl-1-(thiazol-2-yl)-1H-pyrazol-4-yl)pyridin-2-yl)-2,4,6-trifluorobenzamide]
16 | > 1.2 µM | < 0.6 µM |  | O=C(Nc1cnc(-c2cn(-c3nccs3)nc2C2CC2)cn1)c1c(F)cccc1F [Example 47, N-(5-(3-cyclopropyl-1-(thiazol-2-yl)-1H-pyrazol-4-yl)pyrazin-2-yl)-2,6-difluorobenzamide]
17 | > 1.2 µM | < 0.6 µM |  | O=C(Nc1cnc(-c2cn(-c3nccs3)nc2C2CC2)cn1)c1c(F)ccc(F)c1F [Example 48, N-(5-(3-cyclopropyl-1-(thiazol-2-yl)-1H-pyrazol-4-yl)pyrazin-2-yl)-2,3,6-trifluorobenzamide]
18 | 0.6 to 1.2 µM | < 0.6 µM |  | O=C(Nc1cnc(-c2cn(-c3nccs3)nc2C2CC2)cn1)c1c(F)cc(F)cc1F [Example 49, N-(5-(3-cyclopropyl-1-(thiazol-2-yl)-1H-pyrazol-4-yl)pyrazin-2-yl)-2,4,6-trifluorobenzamide]
19 | < 0.6 µM | < 0.6 µM |  | O=C(Nc1cnc(-c2cn(-c3nccs3)nc2C2CC2)cn1)c1ccccc1F [Example 50, N-(5-(3-cyclopropyl-1-(thiazol-2-yl)-1H-pyrazol-4-yl)pyrazin-2-yl)-2-fluorobenzamide]
20 | > 1.2 µM | < 0.6 µM |  | O=C(Nc1ccc(-c2cn(-c3nccs3)nc2C(F)(F)F)c(F)c1)c1c(F)cccc1F [Example 51, 2,6-difluoro-N-(3-fluoro-4-(1-(thiazol-2-yl)-3-(trifluoromethyl)-1H-pyrazol-4-yl)phenyl)benzamide]
21 | < 0.6 µM | < 0.6 µM |  | O=C(Nc1ccc(-c2cn(-c3nccs3)nc2C(F)(F)F)cn1)c1c(F)cccc1F [Example 52, 2,6-difluoro-N-(5-(1-(thiazol-2-yl)-3-(trifluoromethyl)-1H-pyrazol-4-yl)pyridin-2-yl)benzamide]
22 | 0.6 to 1.2 µM | < 0.6 µM |  | O=C(Nc1ccc(-c2cn(-c3nccs3)nc2C(F)(F)F)cn1)c1c(F)ccc(F)c1F [Example 53, 2,3,6-trifluoro-N-(5-(1-(thiazol-2-yl)-3-(trifluoromethyl)-1H-pyrazol-4-yl)pyridin-2-yl)benzamide]
23 |  | < 0.6 µM | — | CC(C)(C)c1nn(-c2nccs2)cc1-c1ccc(NC(=O)c2c(F)cccc2F)nc1 [Example 54, N-(5-(3-tert-butyl-1-(thiazol-2-yl)-1H-pyrazol-4-yl)pyridin-2-yl)-2,6-difluorobenzamide]
24 | < 0.6 µM | < 0.6 µM |  | Cc1nn(-c2cc(F)ccc2F)cc1-c1ccc(NC(=O)c2c(F)cccc2F)nc1 [Example 55, N-(5-(1-(2,5-difluorophenyl)-3-methyl-1H-pyrazol-4-yl)pyridin-2-yl)-2,6-difluorobenzamide]
25 | < 0.6 µM | > 1.2 µM |  | Cc1nn(-c2cc(F)ccc2F)cc1-c1ccc(NC(=O)c2c(F)ccc(F)c2F)nc1 [Example 56, N-(5-(1-(2,5-difluorophenyl)-3-methyl-1H-pyrazol-4-yl)pyridin-2-yl)-2,3,6-trifluorobenzamide]
26 | < 0.6 µM | < 0.6 µM |  | Cc1nn(-c2ccccc2F)cc1-c1ccc(NC(=O)c2c(F)cccc2F)nc1 [Example 57, 2,6-difluoro-N-(5-(1-(2-fluorophenyl)-3-methyl-1H-pyrazol-4-yl)pyridin-2-yl)benzamide]
